Measured values from patent publication US20240294498A1, “FACTOR XIIA INHIBITORS” (Lunac Therapeutics Ltd, priority 2021, published 2024).

Experiments:
Format in all cases: biochemical
thrombin = target: T1, thrombin (Homo sapiens, UniProt P00734); experiment: Determination of selectivity: thrombin inhibition (chromogenic substrate GPR); settings: fold selectivity for FXIIa over thrombin (human); category
T1 construct: FXa (5 nM) and thrombin (5 nM)
In short: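 Thrombin (5 nM) preincubated with increasing compound concentrations (top 500 μM, 5% DMSO) 10 min at 37 °C in 50 mM Tris, 137 mM NaCl pH 7.4, then GPR chromogenic substrate at its KM. pNA release read kinetically at 405 nm for 3 h at 37 °C. IC50 from initial rates, converted to Ki via Cheng–Prusoff.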

FXIIa = target: T2, FXIIa (Homo sapiens, UniProt P00748); experiment: Determination of Factor XIIa inhibition (chromogenic substrate S-2302); settings: human FXIIa alpha, Ki category
T2 construct: FXIIa alpha
T2 sequence (P00748 373-615 limits assumed): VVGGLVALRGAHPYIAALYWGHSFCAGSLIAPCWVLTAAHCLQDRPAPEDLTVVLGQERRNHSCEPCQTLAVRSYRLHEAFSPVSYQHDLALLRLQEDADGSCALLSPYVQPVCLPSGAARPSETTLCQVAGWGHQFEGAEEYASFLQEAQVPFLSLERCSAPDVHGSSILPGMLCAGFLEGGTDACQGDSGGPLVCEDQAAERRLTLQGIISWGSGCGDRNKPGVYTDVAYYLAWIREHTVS
T2 sequence (P00748 20-372 partner limits assumed): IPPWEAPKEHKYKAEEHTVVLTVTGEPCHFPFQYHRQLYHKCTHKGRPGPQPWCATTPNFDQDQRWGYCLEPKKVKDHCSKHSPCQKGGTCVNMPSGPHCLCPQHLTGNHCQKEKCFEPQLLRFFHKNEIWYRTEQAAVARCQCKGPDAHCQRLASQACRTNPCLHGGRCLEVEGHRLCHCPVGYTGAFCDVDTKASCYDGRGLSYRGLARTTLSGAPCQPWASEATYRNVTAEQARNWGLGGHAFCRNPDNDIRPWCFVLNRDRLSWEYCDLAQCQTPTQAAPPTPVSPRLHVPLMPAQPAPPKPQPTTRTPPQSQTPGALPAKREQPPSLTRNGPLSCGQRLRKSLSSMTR
In short: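 Compound preincubated with 10 nM FXIIa for 10 min at 37° C in 50 mM Tris, 137 mM NaCl, pH 7.4, 5% DMSO, top concentration 500 μM; S-2302 added at Km. pNA release followed at 405 nm for 3 h; IC50 from initial rates, converted to Ki via Ki = IC50/(1+[S]/Km).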

FXa = FXa (Homo sapiens, UniProt P00742); experiment: Determination of selectivity: FXa inhibition (chromogenic substrate S2765); settings: fold selectivity for FXIIa over FXa (human); category
In short: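 FXa (5 nM) preincubated with increasing compound (top 500 μM) for 10 mins at 37° C in 50 mM Tris, 137 mM NaCl pH 7.4, 5% DMSO, then S2765 added at its KM. Absorbance at 405 nm followed kinetically for 3 hours; IC50 from initial rates, converted to Ki by Cheng-Prusoff.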

Chain of FXa (P00742 235-488 limits assumed): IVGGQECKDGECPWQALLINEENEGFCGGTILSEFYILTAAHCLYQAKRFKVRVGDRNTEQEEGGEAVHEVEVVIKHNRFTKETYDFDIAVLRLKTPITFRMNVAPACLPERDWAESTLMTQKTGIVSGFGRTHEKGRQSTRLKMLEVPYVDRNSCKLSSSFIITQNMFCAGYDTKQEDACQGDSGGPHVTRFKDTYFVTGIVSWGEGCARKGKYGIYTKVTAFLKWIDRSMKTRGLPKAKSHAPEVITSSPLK
Chain of FXa (P00742 41-179 partner limits assumed): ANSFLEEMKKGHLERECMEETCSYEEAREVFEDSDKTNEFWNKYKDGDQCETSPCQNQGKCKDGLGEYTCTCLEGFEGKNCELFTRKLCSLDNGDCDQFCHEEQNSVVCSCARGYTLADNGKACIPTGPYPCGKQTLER

Ki (FXIIa) [µM] | FXa (human)/FXIIa alpha (human) (FXa) | Compound | Thrombin (human)/FXIIa alpha (human) (thrombin)
0.2 to 0.8 | ∘∘∘ | Cc1ccc(C[C@@H]2C[C@@H](C(=O)NCCCn3ccnc3)N(C(=O)[C@@H]3NCCC[C@@H]3C(=O)N3CCC[C@@H]3C(F)(F)F)C2)cc1 [Example M06089] | +++ (fold selectivity values greater than 100)
< 0.2 | ∘∘∘ | Cc1ccc(C[C@@H]2C[C@@H](C(=O)NCc3ccc4c(cnn4C)c3)N(C(=O)[C@@H]3NCCC[C@@H]3C(=O)N(C)CCN3CC(F)C3)C2)cc1 [Example M06099, (2R,3S)-N-(2-(3-fluoroazetidin-1-yl)ethyl)-N-methyl-2-((2S,4R)-2-(((1-methyl-1H-indazol-5-yl)methyl)carbamoyl)-4-(4-methylbenzyl)pyrrolidine-1-carbonyl)piperidine-3-carboxamide] | +++ (fold selectivity values greater than 100)
< 0.2 | ∘∘∘ | Cc1ccc(C[C@@H]2C[C@@H](C(=O)NCc3ccc4c(cnn4C)c3)N(C(=O)[C@@H]3NCCC[C@@H]3C(=O)N(C)C3CCN(C4CC4)CC3)C2)cc1 [Example M06112, (2R,3S)-N-(1-cyclopropylpiperidin-4-yl)-N-methyl-2-((2S,4R)-2-(((1-methyl-1H-indazol-5-yl)methyl)carbamoyl)-4-(4-methylbenzyl)pyrrolidine-1-carbonyl)piperidine-3-carboxamide] | +++ (fold selectivity values greater than 100)
< 0.2 | ∘∘∘ | CO[C@H]1CCN(CCN(C)C(=O)[C@H]2CCCN[C@H]2C(=O)N2C[C@H](Cc3ccc(C)cc3)C[C@H]2C(=O)NCc2ccc3c(cnn3C)c2)C1 [Example M06128, (2R,3S)-N-(2-((S)-3-methoxypyrrolidin-1-yl)ethyl)-N-methyl-2-((2S,4R)-2-(((1-methyl-1H-indazol-5-yl)methyl)carbamoyl)-4-(4-methylbenzyl)pyrrolidine-1-carbonyl)piperidine-3-carboxamide] | +++ (fold selectivity values greater than 100)

Second part, the compound before the results:

Compound | Ki (FXIIa) [µM] | FXa (human)/FXIIa alpha (human) (FXa) | Thrombin (human)/FXIIa alpha (human) (thrombin)
CN(CCN1CCCC1)C(=O)[C@H]1CCCN[C@H]1C(=O)N1C[C@@H](C(F)(F)F)C[C@H]1C(=O)NCc1ccc2c(cnn2C)c1 [Example M06085, (2R,3S)-N-methyl-2-((2S,4S)-2-(((1-methyl-1H-indazol-5-yl)methyl)carbamoyl)-4-(trifluoromethyl)pyrrolidine-1-carbonyl)-N-(2-(pyrrolidin-1-yl)ethyl)piperidine-3-carboxamide] | < 0.2 | ∘∘∘ | +++ (fold selectivity values greater than 100)
Cc1ccc(C[C@@H]2C[C@@H](C(=O)NCc3ccc4c(cnn4C)c3)N(C(=O)[C@@H]3NCCC[C@@H]3C(=O)N(C)CCN3CC[C@H](F)C3)C2)cc1 [Example M06109, (2R,3S)-N-(2-((S)-3-fluoropyrrolidin-1-yl)ethyl)-N-methyl-2-((2S,4R)-2-(((1-methyl-1H-indazol-5-yl)methyl)carbamoyl)-4-(4-methylbenzyl)pyrrolidine-1-carbonyl)piperidine-3-carboxamide] | < 0.2 | ∘∘∘ | +++ (fold selectivity values greater than 100)
Cc1ccc(C[C@@H]2C[C@@H](C(=O)NCc3ccc4c(cnn4C)c3)N(C(=O)[C@@H]3NCCC[C@@H]3C(=O)N(C)CCN3CC(F)(F)C3)C2)cc1 [Example M06129, (2R,3S)-N-(2-(3,3-difluoroazetidin-1-yl)ethyl)-N-methyl-2-((2S,4R)-2-(((1-methyl-1H-indazol-5-yl)methyl)carbamoyl)-4-(4-methylbenzyl)pyrrolidine-1-carbonyl)piperidine-3-carboxamide] | < 0.2 | ∘∘∘ | +++ (fold selectivity values greater than 100)
Cc1ccc(C[C@@H]2C[C@@H](C(=O)NCc3ccc4c(cnn4C)c3)N(C(=O)[C@@H]3NCCC[C@@H]3C(=O)N(C)CCN(C)CCF)C2)cc1 [Example M06131, (2R,3S)-N-(2-((2-fluoroethyl)(methyl)amino)ethyl)-N-methyl-2-((2S,4R)-2-(((1-methyl-1H-indazol-5-yl)methyl)carbamoyl)-4-(4-methylbenzyl)pyrrolidine-1-carbonyl)piperidine-3-carboxamide] | < 0.2 | ∘∘∘ | +++ (fold selectivity values greater than 100)
